Assay results: patent US6399318B1, “Immunoassay for phthalic acid esters” (Otsuka Pharmaceutical Co., Ltd., priority 2000, dated 2002)
Converted amounts (≈) assume the structure as drawn. Structures can show the parent of a compound that is named as a salt.

Key:
Type in all cases: binding, rabbit
[1] = tested on: Antiserum RY778 (anti-phthalic acid ester antibody); experiment: ELISA for diethyl phthalate and cross-reactivity test; conditions: for IC50: competitive ELISA, antiserum RY778, biotinylated diethyl phthalate derivative as labeled antigen; for Cross-reactivity: relative to diethyl phthalate (calculated as 100%) at B/B0=50, antiserum RY778
Description: An ELISA system of the present invention for diethyl phthalate was designed in the following manner.
Diethyl phthalate was diluted as follows. A solution (857 μg/mL) of 12 mg of diethyl phthalate in 15.7% DMSO was 10-fold diluted with PBS buffer to give a standard solution (85.7 μg/ml). Five-fold dilution of the standard solution was repeated to give solutions of various concentrations (17.1 μg/ml, 3.4 μg/ml, 0.69 μg/ml, 0.137 μg/ml, 0.027 μg/ml and 0.005 μg/ml). These solutions were used as diluted standard antigen solutions.
Biotin-Arg-Lys-aminocapronyl-4-amino-diethyl phthalate synthesized in Example 1 (4) was diluted to 2 ng/ml with PBS buffer and used as a labeled antigen solution.
Antiserum RY778 (anti-phthalic acid ester antibody) synthesized in Example 4 was diluted 10,000-fold with PBS buffer (containing 0.1% BSA and 0.1% Tween 20) and used as an antibody solution.
Goat anti-rabbit IgG (Jackson Immuno Research) was diluted 200-fold with 0.1M phosphate buffer (pH8.0), and 100 μl of the diluted IgG was pipetted into each well of a 96-well microtiter plate (Maxi Sorp, Nunc). The plate was allowed to stand at 25° C. for 18 to 20 hours and then the supernatant was removed. Subsequently, 340 μl of Block Ace (Dainippon Pharmaceutical Co., Ltd.) was pipetted into each well and the plate was allowed to stand at 25° C. for 18 to 20 hours whereby blocking was completed.
After the plate was washed with a wash solution (0.15M NaCl containing 0.1% Tween 20) 5 times, 50 μl of a diluted standard antigen solution or sample, 50 μl of the labeled antigen solution and 100 μl of the antibody solution were added to each well. The culture was incubated at 4° C. for 18 to 20 hours. The plate was washed 3 times with 0.3 ml of the wash solution, and then 0.1 ml of a streptavidin-horseradish peroxidase conjugate (×2500) was added. After incubation at room temperature for 1.5 hours, the plate was washed with 0.3 ml of the wash solution 4 times and then a tetramethyl benzidine-containing colorant (0.1 ml, product of Sigma) was added. After 30 minutes of coloring, 2N sulfuric acid was added to stop the reaction. Absorbance at 450 nm was measured.
A standard curve for diethyl phthalate was obtained from the results of the diluted standard antigen solutions (FIG. 1). In FIG. 1, the ordinate denotes absorbance (at 450 nm) and the abscissa denotes standard antigen concentration (ng/ml).
The cross-reactivity of the antibody of the invention with diethyl phthalate and structurally similar compounds was tested using the ELISA system described in Example 5.
Cross-reactivity (%) is defined as the molar concentration of each test antigen, relative to the concentration of diethyl phthalate (calculated as 100%), at B/B0=50.

antiserum RY850 = experiment: ELISA for benzyl n-butyl phthalate and cross-reactivity test; conditions: ELISA system for benzyl n-butyl phthalate
Description: An ELISA system of the invention for benzyl n-butyl phthalate was designed in a manner similar to that of Example 5, using benzyl n-butyl phthalate (product of Kanto Chemical Co., Inc.) as a standard antigen, using biotin-Arg-Lys-aminocapronyl-4-(or 5-)amino-benzyl n-butyl phthalate of Example 2 (2-6) as a labeled antigen and using antiserum RY850 (10,000-fold diluted) as an antiserum. The antiserum RY850 was prepared as in Example 4, but the aminocapronyl-4-(or 5-)amino-benzyl n-butyl phthalate of Example 2 (2-5) was used in place of aminocapronyl-4-amino-diethyl phthalate.
A standard curve for benzyl n-butyl phthalate was obtained (FIG. 2). In FIG. 2, the ordinate denotes absorbance (at 492 nm) and the abscissa denotes standard antigen concentration (ng/ml).
The cross-reactivity of the antibody of the invention with benzyl n-butyl phthalate and structurally similar compounds was determined using the ELISA system described in Example 8.

antiserum RY849 = experiment: ELISA for di-n-butyl phthalate and cross-reactivity test; conditions: ELISA system for di-n-butyl phthalate
Description: An ELISA system of the invention for di-n-butyl phthalate was designed in a manner similar to that of Example 5, using di-n-butyl phthalate (product of Wako Pure Chemical Industries, Inc.) as a standard antigen, using biotin-Arg-Lys-aminocapronyl-4-amino-di-n-butyl phthalate of Example 2 (2-4) as a labeled antigen and using antiserum RY849 (10,000-fold diluted) as an antiserum. The antiserum RY849 was prepared as in Example 4, but the aminocapronyl-4-amino-di-n-butyl phthalate of Example 2 (2-3) was used in place of aminocapronyl-4-amino-diethyl phthalate of Example 4.
A standard curve for di-n-butyl phthalate was obtained (FIG. 3).
The cross-reactivity of the antibody of the invention with di-n-butyl phthalate and structurally similar substances was determined using the ELISA system described in Example 10.

| Compound | IC50 [1] [µg/mL] | Cross-reactivity [1] [%] | Cross-reactivity (antiserum RY849) [%] | other results |
| --- | --- | --- | --- | --- |
| CCOC(C)=O [Ethyl acetate] | 4.480033 | 0.012 |  |  |
| CCCCOC(=O)c1ccccc1C(=O)OCCCC [Dibutyl phthalate] | 3.893432 (≈ 14 µM) | 0.014 |  | Cross-reactivity ([1]; listed as dibutyl phthalate): about 0.01%; Cross-reactivity (antiserum RY850): 38.9% |
| CC/C(=C(/CC)c1ccc(O)cc1)c1ccc(O)cc1 [diethyl stilbestrol] |  |  | 1.5 |  |
| CCOC=O [Ethyl formate] | 3.001226 | 0.018 |  |  |
| CCOC(=O)c1ccccc1C(=O)OCC [Diethyl phthalate] | 0.000546 (≈ 0.00246 µM) | 100 | 4 | Cross-reactivity ([1]; listed as diethyl phthalate): high reactivity |
| CCCCOC(=O)c1ccccc1C(=O)OCc1ccccc1 [benzyl n-butyl phthalate] |  |  | 100 |  |
| COC(=O)c1ccccc1C(=O)OC [Dimethyl phthalate] | 0.098178 (≈ 0.506 µM) | 0.556 | 1.2 | Cross-reactivity ([1]; listed as dimethyl phthalate): about 0.56% |
| O=C(O)c1ccccc1 [Benzoic acid] |  | <0.001 |  | Cross-reactivity ([1]; listed as benzoic acid): less than 0.001% |
| nonylphenol |  |  | 3.4 | Cross-reactivity (antiserum RY850): 2.3% |
| C/C(=C(/C)c1ccc(O)cc1)c1ccc(O)cc1 [Dimethyl stilbestrol] |  | <0.001 |  | Cross-reactivity ([1]; listed as dimethyl stilbestrol): does not show substantial cross-reactivity |
| CCOC(=O)c1ccccc1 [Ethyl benzoate] | 4.391316 (≈ 29.2 µM) | 0.012 |  |  |
| O=C(O)c1ccccc1C(=O)O [Phthalic acid] |  | <0.001 |  |  |
| CCCCC(CC)COC(=O)c1ccccc1C(=O)OCC(CC)CCCC (stereo not shown) [Di(2-ethylhexyl)phtalate] |  | <0.001 |  |  |
